“And” between values parts separate entries of the source, which are not always exact repeats. Equal values may be shown once.
Key:
[1] = system: metallocarboxypeptidase 2 disrupted T. cruzi intracellular amastigote; assay: Intracellular amastigote assay with metallocarboxypeptidase 2 (TcCLB.504045.60) disrupted T. cruzi; type: cell-based, Trypanosoma cruzi; settings: Fig. S1
Text: activity of AN14353 on intracellular amastigote (b). Representative microphotographs of assays repeated at least three times are shown. Data are presented as mean values +/- SEM; n= 3 […]
(1 picture or pasted object on this page, not shown here)

[2] = system: T. cruzi CL strain in Vero cells; assay: RNA-seq: parasite mRNA relative to host cell (Vero) mRNA; type: cell-based, Trypanosoma cruzi
Method: The drug concentration used for treatment was set at 5 times the IC50. Samples were collected at several time points for RNA extraction as previously described. rRNA-depleted RNA library construction and RNA sequencing using Illumina Nextseq 75PE was carried out by Georgia Genomics and Bioinformatics Core (GGBC, University of Georgia, Georgia). […] The mapping rate was quantified by HTseq v0.6.1 [51].

[3] = Pharmacokinetics in rats (IV and PO); design: species or system rat; settings: in vivo
Method: Rat IV (2 mg/kg) Rat PO (10 mg/kg)
Cl (mL/h/kg) 2258 AUC0-last (hr*µg/mL) 3.34
AUC0-last (hr*µg/mL) 0.883
for AN15368 in rats. Data are presented as mean values +/- SEM; n= 3 animals.

[4] = Plasma protein binding (rat); type: in vitro ADME
[5] = Pharmacokinetic (PK) analysis in NHP; type: in vivo, rhesus macaques (Macaca mulatta); settings: 30 mg/kg dose
Method: Mid- and end-regimen PK assessments were also performed. […] Only 1 blood sample was collected at a single time point from each of the 18 animals. […] The plasma samples were provided to Pharmout Labs (Fremont, California) for analysis using LC-MS/MS. […] For calculation of PK parameters, the Cmax (maximum concentrations) and tmax (time to maximum concentrations) were determined by visual inspection of the plasma concentration vs. time curves from the pre-regimen and end-regimen periods. PK calculation was not performed for the mid-regimen PK samples since only 2 time points were collected. The AUC values for the pre- and end-regimen were calculated using the linear-trapezoidal rule with the following equation: AUC(t1-t2)=[(Ct2+Ct1)x(t2-t1)]/2 where t1 and t2 are consecutive sampling time points, AUC(t1-t2) is the fractional area-under-the-curve over time intervals t1 and t2, Ct2 is the concentration at time t2, Ct1 is the concentration at time t1. […] AUC0-∞ was estimated using the following equation: AUC0-∞=[…] Where AUC0-∞ was AUC from zero to infinity, AUClast was the AUC from zero to the last measurable time point, Clast was the concentration at the last measurable time point. AUC0-∞ and t1/2 were not estimated when the terminal elimination phase was not defined. Plasma clearance (CLp) after the IV dose was estimated using the following: CLp = Dose/AUC0-∞.

[6] = system: CPSF3 mutant T. cruzi intracellular amastigotes; assay: Intracellular amastigote assay with CPSF3 Asn to His mutant T. cruzi; type: cell-based, Trypanosoma cruzi; settings: for % of maximum: Fig 5.d, CPSF3-mutant
Method: The in vitro anti-T. cruzi amastiogote activity assay was performed and optimized based on the protocol described previously. The change in tdTomato fluorescence intensity was determined as a measurement of growth over 72 hours of culture. For assaying drug effects on extracellular amastigotes, trypomastigotes were collected from infected Vero cell cultures and converted in acidic media as previously described. Amastigotes (50,000/well) were incubated with 2-fold serial dilutions of compounds for 48 hours. The ATP production was used as an indication of growth in this case, and was measured by ATPlite Luminescence ATP Detection Assay System (PerkinElmer). Both fluorescence and luminescence were read using a BioTek Synergy Hybrid Multi-Mode reader equipped with the software Gene5 v 2.0 (BioTek). The dose-response curve was generated by […] analysis with GraphPad Prism v9.4.0 (GraphPad Software).
To generate CPSF3 mutant, a RNP c omplex was transfected into Brazil tdTomato strain epimastigotes to target the CPSF3 gene (TcBrA4_0124800), together with a repair template that contained the mutation of Asn^231 to His[21]. The sgRNA targeted the ‘[…]’ site. […] The ultimate resistant parasites were validated to have acquired the Asn^231His mutation in CPSF3 via sequencing.

## Cc1c(C(=O)NC(C(=O)OCc2ccc(F)c(F)c2)C(C)C)ccc2c1B(O)OC2 (centres unmarked) [AN14353]
[1]
  impact of metallocarboxypeptidase 2 disruption on activity: Lack of impact
[2]; 0hpt
  RNA-seq reads mapped to African green monkey: 60
  RNA-seq reads mapped to T.cruzi CL Brener: 14
  RNA-seq reads unmapped: 26
[2]; 6hpt
  RNA-seq reads mapped to African green monkey: 63
  RNA-seq reads mapped to T.cruzi CL Brener: 5
  RNA-seq reads unmapped: 32
[2]; 12hpt
  RNA-seq reads mapped to African green monkey: 62
  RNA-seq reads mapped to T.cruzi CL Brener: 2
  RNA-seq reads unmapped: 35
[2]; 24hpt
  RNA-seq reads mapped to African green monkey: 77
  RNA-seq reads mapped to T.cruzi CL Brener: 1
  RNA-seq reads unmapped: 22
[2]; T. cruzi-infected Vero cells, 30 nM AN14353 or 5 uM benznidazole, from 6 hrs
  parasite mRNA relative to host cell mRNA: marked and continuing reduction in parasite mRNA

## Cc1c(C(=O)N[C@H](C(=O)OCC2CCOCC2)C(C)C)ccc2c1B(O)OC2 [AN15368]
[3]; Rat IV (2 mg/kg)
  AUC(0-t): 883 ng·h/mL
  Cmax: 1700 ± 200 ng/mL
  clearance: 37.6 mL/min/kg
[3]; Rat IV (2 mg/kg), read-out: Vss
  Vd: 1.11 L/kg
[3]; Rat PO (10 mg/kg)
  AUC(0-t): 3340 ng·h/mL
  Cmax: 2100 ± 290 ng/mL
  bioavailability: 76.1%
[4]
  Funbound (rat): 10%
[5]
  exposure: 3.5 to 4.7 µg·h/kg
[6]; 0.10
  % of maximum: 3% and 1%
[6]; 0.40
  % of maximum: -6%
[6]; 0.70
  % of maximum: 2% and -5%
[6]; 1.00
  % of maximum: -6% and -2%
[6]; 1.30
  % of maximum: -4% and -2% and 5%
[6]; -0.51
  % of maximum: 97% and 106% and 96%
[6]; -0.81
  % of maximum: 96% and 123% and 105%
[6]; -1.11
  % of maximum: 92% and 97% and 122%
[6]; Trypanosoma cruzi, read-out: CPSF3 mutant IC50
  IC50: 500 nM
